Test results taken from patent publication US20240217930A1 (priority 2021, published 2024).

Molecular target: SARS-CoV-2 Mpro (Severe acute respiratory syndrome coronavirus 2, UniProt P0DTD1)
Experiment: SARS-CoV-2 Mpro FRET-based enzyme assay
Assay type: biochemical
Conditions: 5 nM Mpro, 25 μM FRET substrate, 20 min preincubation at room temperature; mean n=2; read-out: SARS-CoV-2 Mpro enzyme pKi assay pKi (converted)

SMILES	Ki
CC(C)C(=O)N[C@H](C(=O)N1C[C@H]2[C@@H]([C@H]1C(=O)NC(CC1CC1)C(=O)C(N)=O)C2(C)C)C(C)(C)C (stereo partly drawn) [Example 1, (1 R,2S,5S)—N-(4-Amino-1-cyclopropyl-3,4-dioxobutan-2-yl)-3-((S)-2-isobutyramido-3,3-dimethylbutanoyl)-6,6-dimethyl-3-azabicyclo[3.1.0]hexane-2-carboxamide]	15.8 nM
CC(C)[C@H](NC(=O)C1CC1)C(=O)N1C[C@H]2[C@@H]([C@H]1C(=O)NC(CC1CC1)C(=O)C(N)=O)C2(C)C (stereo partly drawn) [Example 2, (1 R,2S,5S)—N-[3-Amino-1-(cyclopropylmethyl)-2,3-dioxo-propyl]-3-[(2S)-2-(cyclopropanecarbonylamino)-3-methylbutanoyl]-6,6-dimethyl-3-azabicyclo[3.1.0]hexane-2-carboxamide]	50.1 nM
CC[C@@H](C)[C@H](NC(=O)C(C)C)C(=O)N1C[C@H]2[C@@H]([C@H]1C(=O)NC(CC1CC1)C(=O)C(N)=O)C2(C)C (stereo partly drawn) [Example 3, (1R,2S,5S)—N-(4-Amino-1-cyclopropyl-3,4-dioxobutan-2-yl)-3-(isobutyryl-L-alloisoleucyl)-6,6-dimethyl-3-azabicyclo[3.1.0]hexane-2-carboxamide]	79.4 nM
C=CC(=O)N[C@H](C(=O)N1C[C@H]2[C@@H]([C@H]1C(=O)NC(CC1CC1)C(=O)C(N)=O)C2(C)C)C(C)C (stereo partly drawn) [Example 4, (1 R,2S,5S)-3-(Acryloyl-L-valyl)-N-(4-amino-1-cyclopropyl-3,4-dioxobutan-2-yl)-6,6-dimethyl-3-azabicyclo[3.1.0]hexane-2-carboxamide]	50.1 nM
CC(C)C(=O)N[C@H](C(=O)N1C[C@H]2[C@@H]([C@H]1C(=O)NC(C[C@H]1C[C@@H]1C)C(=O)C(N)=O)C2(C)C)C(C)C (stereo partly drawn) [Example 5, (1 R,2S,5S)—N-(4-Amino-1-((1 R,2S)-2-methylcyclopropyl)-3,4-dioxobutan-2-yl)-3-(isobutyryl-L-valyl)-6,6-dimethyl-3-azabicyclo[3.1.0]hexane-2-carboxamide]	158 nM
CC(C)C(=O)N[C@@H](CC1CC1)C(=O)N1C[C@H]2[C@@H]([C@H]1C(=O)NC(CC1CC1)C(=O)C(N)=O)C2(C)C (stereo partly drawn) [Example 6, (1 R,2S,5S)—N-(4-Amino-1-cyclopropyl-3,4-dioxobutan-2-yl)-3-((S)-3-cyclopropyl-2-isobutyramidopropanoyl)-6,6-dimethyl-3-azabicyclo[3.1.0]hexane-2-carboxamide]	200 nM
CC(C)C(=O)N[C@H](C(=O)N1C[C@H]2[C@@H]([C@H]1C(=O)NC(CC1CC1)C(=O)C(N)=O)C2(C)C)C(C)C (stereo partly drawn) [Example 7, (1 R,2S,5S)—N-(4-Amino-1-cyclopropyl-3,4-dioxobutan-2-yl)-3-(isobutyryl-L-valyl)-6,6-dimethyl-3-azabicyclo[3.1.0]hexane-2-carboxamide]	200 nM
CC1(C)[C@@H]2[C@@H](C(=O)NC(CC3CC3)C(=O)C(N)=O)N(C(=O)[C@@H](NC(=O)C3CC3)C3CC3)C[C@@H]21 (stereo partly drawn) [Example 9, (1 R,2S,5S)—N-(4-Amino-1-cyclopropyl-3,4-dioxobutan-2-yl)-3-((S)-2-(cyclopropanecarboxamido)-2-cyclopropylacetyl)-6,6-dimethyl-3-azabicyclo[3.1.0]hexane-2-carboxamide]	316 nM
CC(C)C(=O)N[C@H](C(=O)N1C[C@H]2[C@@H]([C@H]1C(=O)NC(CC1CC1)C(=O)C(N)=O)C2(C)C)C1CC1 (stereo partly drawn) [Example 10, (1 R,2S,5S)—N-(4-Amino-1-cyclopropyl-3,4-dioxobutan-2-yl)-3-((S)-2-cyclopropyl-2-isobutyramidoacetyl)-6,6-dimethyl-3-azabicyclo[3.1.0]hexane-2-carboxamide]	316 nM
CC(C)C(=O)NC(C(=O)N1C[C@H]2[C@@H]([C@H]1C(=O)NC(CC1CC1)C(=O)C(N)=O)C2(C)C)C1COC1 (stereo partly drawn) [Example 13, (1 R,2S,5S)—N-(4-Amino-1-cyclopropyl-3,4-dioxobutan-2-yl)-3-(2-isobutyramido-2-(oxetan-3-yl)acetyl)-6,6-dimethyl-3-azabicyclo[3.1.0]hexane-2-carboxamide]	316 nM
CC(C)(C)[C@H](NC(=O)C1CC1)C(=O)N1C[C@H]2[C@@H]([C@H]1C(=O)NC(CC1CC1)C(=O)C(N)=O)C2(C)C (stereo partly drawn) [Example 14, (1 R,2S,5S)—N-(4-Amino-1-cyclopropyl-3,4-dioxobutan-2-yl)-3-((S)-2-(cyclopropanecarboxamido)-3,3-dimethylbutanoyl)-6,6-dimethyl-3-azabicyclo[3.1.0]hexane-2-carboxamide]	15.8 nM
C=CC(=O)N[C@H](C(=O)N1C[C@H]2[C@@H]([C@H]1C(=O)NC(CC1CC1)C(=O)C(N)=O)C2(C)C)C(C)(C)C (stereo partly drawn) [Example 15, (1 R,2S,5S)-3-((S)-2-Acrylamido-3,3-dimethylbutanoyl)-N-(4-amino-1-cyclopropyl-3,4-dioxobutan-2-yl)-6,6-dimethyl-3-azabicyclo[3.1.0]hexane-2-carboxamide]	3.98 nM
CC(C)(C)[C@H](NC(=O)C1CC1)C(=O)N1C[C@H]2[C@@H]([C@H]1C(=O)NC(CC1CC1)C(=O)C(=O)NCc1ccccc1)C2(C)C (stereo partly drawn) [Example 18, (1 R,2S,5S)—N-(4-(Benzylamino)-1-cyclopropyl-3,4-dioxobutan-2-yl)-3-((S)-2-(cyclopropanecarboxamido)-3,3-dimethylbutanoyl)-6,6-dimethyl-3-azabicyclo[3.1.0]hexane-2-carboxamide]	50.1 nM
CC(C)(C)[C@H](NC(=O)C1CC1)C(=O)N1C[C@H]2[C@@H]([C@H]1C(=O)NC(CC1CC1)C(=O)C(=O)NC1CC1)C2(C)C (stereo partly drawn) [Example 19, (1 R,2S,5S)-3-((S)-2-(Cyclopropanecarboxamido)-3,3-dimethylbutanoyl)-N-(1-cyclopropyl-4-(cyclopropylamino)-3,4-dioxobutan-2-yl)-6,6-dimethyl-3-azabicyclo[3.1.0]hexane-2-carboxamide]	50.1 nM
CNC(=O)C(=O)C(CC1CC1)NC(=O)[C@@H]1[C@@H]2[C@H](CN1C(=O)[C@@H](NC(=O)C(C)C)C(C)(C)C)C2(C)C (stereo partly drawn) [Example 22, (1 R,2S,5S)—N-(1-Cyclopropyl-4-(methylamino)-3,4-dioxobutan-2-yl)-3-((S)-2-isobutyramido-3,3-dimethylbutanoyl)-6,6-dimethyl-3-azabicyclo[3.1.0]hexane-2-carboxamide]	15.8 nM
CC(C)C(=O)N[C@H](C(=O)N1C[C@H]2[C@@H]([C@H]1C(=O)NC(CC1CC1)C(=O)C(=O)N(C)C)C2(C)C)C(C)(C)C (stereo partly drawn) [Example 23, (1 R,2S,5S)—N-(1-Cyclopropyl-4-(dimethylamino)-3,4-dioxobutan-2-yl)-3-((S)-2-isobutyramido-3,3-dimethylbutanoyl)-6,6-dimethyl-3-azabicyclo[3.1.0]hexane-2-carboxamide]	> 5010 nM
CC(C)C(=O)N[C@H](C(=O)N1C[C@H]2[C@@H]([C@H]1C(=O)NC(CC1CC1)C(=O)C(N)=O)C2(C)C)C1CCC1 (stereo partly drawn) [Example 25, (1 R,2S,5S)—N-(4-Amino-1-cyclopropyl-3,4-dioxobutan-2-yl)-3-((S)-2-cyclobutyl-2-isobutyramidoacetyl)-6,6-dimethyl-3-azabicyclo[3.1.0]hexane-2-carboxamide]	251 nM
CC(C)C(=O)N[C@H](C(=O)N1C[C@H]2[C@@H]([C@H]1C(=O)NC(C#N)CC1CC1)C2(C)C)C(C)(C)C (stereo partly drawn) [Example 27, (1 R,2S,5S)—N-(1-Cyano-2-cyclopropylethyl)-3-((S)-2-isobutyramido-3,3-dimethylbutanoyl)-6,6-dimethyl-3-azabicyclo[3.1.0]hexane-2-carboxamide]	> 5010 nM
CC(C)[C@H](NC(=O)C1CC1)C(=O)N1C[C@H]2[C@@H]([C@H]1C(=O)NC(CC1CC1)C(=O)C(=O)NC1CC1)C2(C)C (stereo partly drawn) [Example 29, (1 R,2S,5S)-3-((Cyclopropanecarbonyl)-L-valyl)-N-(1-cyclopropyl-4-(cyclopropylamino)-3,4-dioxobutan-2-yl)-6,6-dimethyl-3-azabicyclo[3.1.0]hexane-2-carboxamide]	251 nM
CC(C)C(=O)NC(C(=O)N1C[C@H]2[C@@H]([C@H]1C(=O)NC(CC1CC1)C(=O)C(N)=O)C2(C)C)C1CCOC1 (stereo partly drawn) [Example 30, (1 R,2S,5S)—N-(4-Amino-1-cyclopropyl-3,4-dioxobutan-2-yl)-3-(2-isobutyramido-2-(tetrahydrofuran-3-yl)acetyl)-6,6-dimethyl-3-azabicyclo[3.1.0]hexane-2-carboxamide]	158 nM
CC(C)C(=O)N[C@H](C(=O)N1C[C@H]2[C@@H]([C@H]1C(=O)NC(CC1CC1)C(=O)C(=O)N[C@H]1CC1(C)C)C2(C)C)C(C)(C)C (stereo partly drawn) [Example 31, (1 R,2S,5S)—N-(1-Cyclopropyl-4-(((S)-2,2-dimethylcyclopropyl)amino)-3,4-dioxobutan-2-yl)-3-((S)-2-isobutyramido-3,3-dimethylbutanoyl)-6,6-dimethyl-3-azabicyclo[3.1.0]hexane-2-carboxamide]	100 nM
CC(C)(C)[C@H](NC(=O)C(C(F)(F)F)C(F)(F)F)C(=O)N1C[C@H]2[C@@H]([C@H]1C(=O)NC(CC1CC1)C(=O)C(N)=O)C2(C)C (stereo partly drawn) [Example 33, (1 R,2S,5S)—N-(4-Amino-1-cyclopropyl-3,4-dioxobutan-2-yl)-3-((S)-3,3-dimethyl-2-(3,3,3-trifluoro-2-(trifluoromethyl)propanamido)butanoyl)-6,6-dimethyl-3-azabicyclo[3.1.0]hexane-2-carboxamide]	158 nM
